Measured values: PubChem BioAssay (NCI)
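The compound was tested at five concentrations on cells cultured in 96-well plates, with a 48-hour exposure period. Abbreviation: GI50, concentration required for 50% inhibition of growth. TGI denotes the concentration required for complete inhibition of growth.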

Columns and labels:
Test in all cases: DTP human tumour cell line panel, 48 h
HCT-15 colon = system: HCT-15 colon
HT29 colon = system: HT29 colon
MOLT-4 leukemia = system: MOLT-4 leukemia
NCI-H226 lung = system: NCI-H226 lung
NCI-H23 lung = system: NCI-H23 lung
OVCAR-8 ovarian = system: OVCAR-8 ovarian
SK-OV-3 ovarian = system: SK-OV-3 ovarian
SNB-75 CNS = system: SNB-75 CNS
UACC-62 melanoma = system: UACC-62 melanoma
LOX IMVI melanoma = system: LOX IMVI melanoma

Structure (SMILES)	TGI (HCT-15 colon)	TGI (HT29 colon)	TGI (MOLT-4 leukemia)	TGI (NCI-H226 lung)	TGI (NCI-H23 lung)	TGI (OVCAR-8 ovarian)	TGI (SK-OV-3 ovarian)	TGI (SNB-75 CNS)	TGI (UACC-62 melanoma)	TGI (LOX IMVI melanoma)	GI50 (HT29 colon)	GI50 (LOX IMVI melanoma)	GI50 (NCI-H226 lung)	GI50 (NCI-H23 lung)	GI50 (OVCAR-8 ovarian)	GI50 (SK-OV-3 ovarian)	GI50 (SNB-75 CNS)	GI50 (UACC-62 melanoma)	GI50 (HCT-15 colon)	GI50 (MOLT-4 leukemia)
CCOc1ccc(N/C(=C(/C(Cl)=C(/Cl)N(CC)CC)[N+](=O)[O-])n2nnc3ccccc32)cc1	38.4 µM	63.8 µM	> 100 µM	> 100 µM	35 µM	32.7 µM	> 100 µM	51.2 µM	28.8 µM	–	–	–	–	–	–	–	–	–	–	–
COc1ccc2c3c1OC1C(=O)C=CC4(CC2)N(C)CCC314 (centres undefined)	> 100 µM	> 100 µM	59 µM	–	> 100 µM	> 100 µM	> 100 µM	> 100 µM	–	> 100 µM	–	–	–	–	–	–	–	–	–	–
CC1CCCC2(CC[N+](C)(CCC[N+](C)(C)C)CC2)C1 (centres undefined)	> 100 µM	> 100 µM	> 100 µM	> 100 µM	–	> 100 µM	> 100 µM	> 100 µM	> 100 µM	> 100 µM	–	–	–	–	–	–	–	–	–	–
C[C@H](NC(=O)C(Cc1ccccc1)(Cc1ccc(O)cn1)NC(=O)c1ccccc1)c1ccccc1 (some centres undefined)	38.3 µM	33.4 µM	84.9 µM	36.5 µM	50.5 µM	42.1 µM	–	–	26.5 µM	29.7 µM	–	–	–	–	–	–	–	–	–	–
Nc1ccc(S(=O)(=O)c2ccc(NCN3C(=O)NC(=O)C(=O)C3=O)cc2)cc1	> 100 µM	> 100 µM	> 100 µM	> 100 µM	> 100 µM	> 100 µM	–	–	> 100 µM	> 100 µM	–	–	–	–	–	–	–	–	–	–
C[N+](C)(C)c1ccc(C(N)C(=O)O)cc1 (centres undefined)	> 100 µM	> 100 µM	–	> 100 µM	> 100 µM	> 100 µM	> 100 µM	> 100 µM	> 100 µM	> 100 µM	–	–	–	–	–	–	–	–	–	–
COc1ccc(N2C(=O)CC(=O)N(C(=O)COc3ccc(OCC(=O)N4C(=O)CC(=O)N(c5ccc(OC)cc5)C4=S)cc3)C2=S)cc1	> 100 µM	> 100 µM	> 100 µM	> 100 µM	> 100 µM	–	> 100 µM	> 100 µM	> 100 µM	–	–	–	–	–	–	–	–	–	–	–
COC(=O)C1(Cc2ccc3c(c2)CCC3)Cc2ccccc2C1O (centres undefined)	50.7 µM	31.6 µM	35.5 µM	36.6 µM	45 µM	36 µM	44.2 µM	–	28.1 µM	34 µM	–	–	–	–	–	–	–	–	–	–
C[n+]1cccc2c(=O)c3ccccc3oc21	> 100 µM	> 100 µM	–	> 100 µM	> 100 µM	> 100 µM	> 100 µM	> 100 µM	> 100 µM	> 100 µM	–	–	–	–	–	–	–	–	–	–
O=C1CCCCC/C1=C\c1ccc([N+](=O)[O-])cc1	–	77.7 µM	> 100 µM	–	–	> 100 µM	> 100 µM	> 100 µM	> 100 µM	–	–	–	–	–	–	–	–	–	–	–
Cc1cc(C)nc(SC2=C(Nc3ccc(C)c(Cl)c3)C(=O)N(Cc3ccccc3)C2=O)n1	–	> 160 µM	–	> 160 µM	> 160 µM	> 160 µM	> 160 µM	> 160 µM	> 160 µM	> 160 µM	> 160 µM	> 160 µM	> 160 µM	> 160 µM	> 160 µM	> 160 µM	> 160 µM	> 160 µM	–	–
CC(=C(c1ccccc1)c1ccccc1)N1C(=O)CC(=O)N1C	–	> 100 µM	76.3 µM	> 100 µM	> 100 µM	> 100 µM	> 100 µM	> 100 µM	83.6 µM	31.2 µM	–	–	–	–	–	–	–	–	–	–
COc1c(O)c(C=O)c2c(O)c(-c3c(C)cc4c(C(C)C)c(OC)c(O)c(C=O)c4c3O)c(C)cc2c1C(C)C	14 µM	15.3 µM	27.9 µM	9.69 µM	13.2 µM	16.4 µM	14.2 µM	9.38 µM	29 µM	–	–	–	–	–	–	–	–	–	–	–
O=c1cc(N2CCCC2)[nH]c(=O)n1Cc1ccccc1	> 100 µM	> 100 µM	> 100 µM	> 100 µM	> 100 µM	> 100 µM	–	> 100 µM	–	> 100 µM	–	–	–	–	–	–	–	–	–	–
C/C=C/c1cc(=O)c([C@@H]2OC(=O)c3cc(OC)cc(OC)c32)co1	–	> 100 µM	> 100 µM	> 100 µM	> 100 µM	> 100 µM	–	60.3 µM	> 100 µM	–	–	–	–	–	–	–	–	–	–	–
CCNC(=S)N=Nc1c(O)[nH]c2ccc([N+](=O)[O-])cc12	> 100 µM	> 100 µM	> 100 µM	> 100 µM	> 100 µM	> 100 µM	> 100 µM	–	> 100 µM	> 100 µM	–	–	–	–	–	–	–	–	–	–
Cc1ccc(/C(O)=C/c2nc3ccccc3sc2=O)c(C)c1	> 100 µM	> 100 µM	> 100 µM	> 100 µM	> 100 µM	> 100 µM	> 100 µM	–	> 100 µM	> 100 µM	–	–	–	–	–	–	–	–	–	–
COC(=O)C1CCC(=S)N1C(=O)c1ccccc1 (centres undefined)	> 100 µM	> 100 µM	90.3 µM	–	> 100 µM	> 100 µM	> 100 µM	> 100 µM	> 100 µM	–	–	–	–	–	–	–	–	–	–	–
CC(C)=NN/C(=N\S(=O)(=O)c1ccc(Oc2cccc(Cl)c2C#N)cc1)Nc1ccc(Cl)cc1	> 100 µM	> 100 µM	> 100 µM	> 100 µM	> 100 µM	> 100 µM	–	–	> 100 µM	> 100 µM	–	–	–	–	–	–	–	–	–	–
NS(=O)(=O)c1ccc(/C=C/c2ccc(F)cc2)cc1	33.3 µM	> 100 µM	> 100 µM	27 µM	> 100 µM	30 µM	57.6 µM	> 100 µM	–	> 100 µM	29.4 µM	26.7 µM	7.97 µM	45.1 µM	15.2 µM	–	–	–	9.97 µM	12.9 µM
CC(C)CNc1nc2ncnc(N)c2[nH]1	> 100 µM	> 100 µM	> 100 µM	> 100 µM	> 100 µM	> 100 µM	> 100 µM	–	> 100 µM	> 100 µM	–	–	–	–	–	–	–	–	–	–
COC(OC)[C@@H]1OC[C@H](n2cnc3c(N)ncnc32)[C@H]1O	> 100 µM	> 100 µM	> 100 µM	> 100 µM	> 100 µM	–	> 100 µM	> 100 µM	> 100 µM	> 100 µM	–	–	–	–	–	–	–	–	–	–
CC1(C)N/C(=C\C=O)C(C)(C)N1O	> 100 µM	> 100 µM	> 100 µM	> 100 µM	> 100 µM	> 100 µM	> 100 µM	–	> 100 µM	> 100 µM	–	–	–	–	–	–	–	–	–	–
